# Laboratory results from US4731451A, “N-((2-oxo-3(2H)benzothiazolyl)methyl)-2-chloroacetanilides” (Monsanto Company, priority 1980, dated 1988).
# How the values were obtained:
# Assay type in all cases: in vivo
# Barnyardgrass [1] = assay: Pre-emergent herbicidal activity (Table II); conditions: 2-3 weeks
# Experimental: (§1) The pre-emergence tests are conducted as follows:
# (§2) A good grade of top soil is placed in aluminum pans and compacted to a depth of three-eighths to one-half inch from the top of the pan. On the top of the soil is placed a predetermined number of seeds or vegetative propagules of various plant species. The soil required to level fill the pans after seeding or adding vegetative propagules is weighed into a pan. A known amount of the active ingredient applied in a solvent or as a wettable powder suspension and the soil are thoroughly mixed, and used as a cover layer for prepared pans. After treatment, the pans are moved into a greenhouse bench where they are watered from below as needed to give adequate moisture for germination and growth.
# (§3) Approximately 2-3 weeks after seeding and treating, the plants are observed and the results recorded. The herbicidal rating is obtained by means of fixed scale based on the percent injury of each plant species. The ratings are defined as follows: […]
# (§4) The plant species utilized in one set of tests, the data for which are shown in Table II, are identified by letter in accordance with the following legend: […]
# Canada Thistle = assay: Pre-emergent herbicidal activity (Table II); conditions: 2-3 weeks
# Experimental: as §1, §2, §3, §4
# Cocklebur [2] = assay: Pre-emergent herbicidal activity (Table II); conditions: 2-3 weeks
# Experimental: as §1, §2, §3, §4
# Downy Brome [3] = assay: Pre-emergent herbicidal activity (Table II); conditions: 2-3 weeks
# Experimental: as §1, §2, §3, §4
# Johnsongrass = assay: Pre-emergent herbicidal activity (Table II); conditions: 2-3 weeks
# Experimental: as §1, §2, §3, §4
# Lambsquarters [4] = assay: Pre-emergent herbicidal activity (Table II); conditions: 2-3 weeks
# Experimental: as §1, §2, §3, §4
# Morningglory [5] = assay: Pre-emergent herbicidal activity (Table II); conditions: 2-3 weeks
# Experimental: as §1, §2, §3, §4
# Quackgrass = assay: Pre-emergent herbicidal activity (Table II); conditions: 2-3 weeks
# Experimental: as §1, §2, §3, §4
# Smartweed [6] = assay: Pre-emergent herbicidal activity (Table II); conditions: 2-3 weeks
# Experimental: as §1, §2, §3, §4
# Velvetleaf [7] = assay: Pre-emergent herbicidal activity (Table II); conditions: 2-3 weeks
# Experimental: as §1, §2, §3, §4
# Yellow Nutsedge = assay: Pre-emergent herbicidal activity (Table II); conditions: 2-3 weeks
# Experimental: as §1, §2, §3, §4
# Barnyardgrass [8] = assay: Pre-emergent herbicidal activity (Table III)
# Experimental: as §1, §2, §3
# (§5) The compounds were further tested by utilizing the above procedure on the following plant species: […]
# Cocklebur [9] = assay: Pre-emergent herbicidal activity (Table III)
# Experimental: as §1, §2, §3, §5
# Crabgrass = assay: Pre-emergent herbicidal activity (Table III)
# Experimental: as §1, §2, §3, §5
# Downy Brome [10] = assay: Pre-emergent herbicidal activity (Table III)
# Experimental: as §1, §2, §3, §5
# Hemp Sesbania = assay: Pre-emergent herbicidal activity (Table III)
# Experimental: as §1, §2, §3, §5
# Lambsquarters [11] = assay: Pre-emergent herbicidal activity (Table III)
# Experimental: as §1, §2, §3, §5
# Morningglory [12] = assay: Pre-emergent herbicidal activity (Table III)
# Experimental: as §1, §2, §3, §5
# Panicum = assay: Pre-emergent herbicidal activity (Table III)
# Experimental: as §1, §2, §3, §5
# Rice = assay: Pre-emergent herbicidal activity (Table III)
# Experimental: as §1, §2, §3, §5
# Smartweed [13] = assay: Pre-emergent herbicidal activity (Table III)
# Experimental: as §1, §2, §3, §5
# Sorghum = assay: Pre-emergent herbicidal activity (Table III)
# Experimental: as §1, §2, §3, §5
# Soybean = assay: Pre-emergent herbicidal activity (Table III)
# Experimental: as §1, §2, §3, §5
# Sugarbeet = assay: Pre-emergent herbicidal activity (Table III)
# Experimental: as §1, §2, §3, §5
# Velvetleaf [14] = assay: Pre-emergent herbicidal activity (Table III)
# Experimental: as §1, §2, §3, §5
# Wheat = assay: Pre-emergent herbicidal activity (Table III)
# Experimental: as §1, §2, §3, §5
# Wild Buckwheat = assay: Pre-emergent herbicidal activity (Table III)
# Experimental: as §1, §2, §3, §5
# Note: ranges in brackets are in %.
molecule,measurement,setting,value
"CCC1=C(N(Cn2c(=O)sc3ccccc32)C(=O)CCl)C(CC)CCC1 (stereo not shown) [Example 5, N--[(2-oxo-3(2H)--benzothiazolyl)methyl]-N--(2,6-diethyl-1-cyclohexen-1-yl)-2-chloro-acetamide]",Herbicidal rating,Barnyardgrass [1]; 5.6 kg/ha,1 (25-49)
same,Herbicidal rating,Barnyardgrass [1]; 11.2 kg/ha,1 (25-49)
same,Herbicidal rating,Canada Thistle; 5.6 kg/ha,0 (0-24)
same,Herbicidal rating,Canada Thistle; 11.2 kg/ha,0 (0-24)
same,Herbicidal rating,Cocklebur [2]; 5.6 kg/ha,0 (0-24)
same,Herbicidal rating,Cocklebur [2]; 11.2 kg/ha,0 (0-24)
same,Herbicidal rating,Downy Brome [3]; 5.6 kg/ha,0 (0-24)
same,Herbicidal rating,Downy Brome [3]; 11.2 kg/ha,0 (0-24)
same,Herbicidal rating,Johnsongrass; 5.6 kg/ha,0 (0-24)
same,Herbicidal rating,Johnsongrass; 11.2 kg/ha,0 (0-24)
same,Herbicidal rating,Lambsquarters [4]; 5.6 kg/ha,1 (25-49)
same,Herbicidal rating,Lambsquarters [4]; 11.2 kg/ha,1 (25-49)
same,Herbicidal rating,Morningglory [5]; 5.6 kg/ha,0 (0-24)
same,Herbicidal rating,Morningglory [5]; 11.2 kg/ha,0 (0-24)
same,Herbicidal rating,Quackgrass; 5.6 kg/ha,0 (0-24)
same,Herbicidal rating,Quackgrass; 11.2 kg/ha,0 (0-24)
same,Herbicidal rating,Smartweed [6]; 5.6 kg/ha,0 (0-24)
same,Herbicidal rating,Smartweed [6]; 11.2 kg/ha,0 (0-24)
same,Herbicidal rating,Velvetleaf [7]; 5.6 kg/ha,0 (0-24)
same,Herbicidal rating,Velvetleaf [7]; 11.2 kg/ha,0 (0-24)
same,Herbicidal rating,Yellow Nutsedge; 5.6 kg/ha,0 (0-24)
same,Herbicidal rating,Yellow Nutsedge; 11.2 kg/ha,0 (0-24)
"N--[(2-oxo-3(2H)--benzothiazolyl)methyl]-N--(2-ethyl-6-methyl-1-cyclohexen-1-yl)-2-chloro-acetamide, mixed with its -N--[(2-oxo-3(2H)--benzothiazolyl)methyl]-N--(2-methyl-6-ethyl-1-cyclohexen-1-yl)-2-chloroacetamide [Example 4]",Herbicidal rating,Barnyardgrass [1]; 5.6 kg/ha,3 (75-100)
same,Herbicidal rating,Barnyardgrass [1]; 11.2 kg/ha,3 (75-100)
same,Herbicidal rating,Canada Thistle; 5.6 kg/ha,1 (25-49)
same,Herbicidal rating,Canada Thistle; 11.2 kg/ha,2 (50-74)
same,Herbicidal rating,Cocklebur [2]; 5.6 kg/ha,0 (0-24)
same,Herbicidal rating,Cocklebur [2]; 11.2 kg/ha,0 (0-24)
same,Herbicidal rating,Downy Brome [3]; 5.6 kg/ha,1 (25-49)
same,Herbicidal rating,Downy Brome [3]; 11.2 kg/ha,1 (25-49)
same,Herbicidal rating,Johnsongrass; 5.6 kg/ha,0 (0-24)
same,Herbicidal rating,Johnsongrass; 11.2 kg/ha,3 (75-100)
same,Herbicidal rating,Lambsquarters [4]; 5.6 kg/ha,1 (25-49)
same,Herbicidal rating,Lambsquarters [4]; 11.2 kg/ha,3 (75-100)
same,Herbicidal rating,Morningglory [5]; 5.6 kg/ha,0 (0-24)
same,Herbicidal rating,Morningglory [5]; 11.2 kg/ha,0 (0-24)
same,Herbicidal rating,Quackgrass; 5.6 kg/ha,0 (0-24)
same,Herbicidal rating,Quackgrass; 11.2 kg/ha,0 (0-24)
same,Herbicidal rating,Smartweed [6]; 5.6 kg/ha,0 (0-24)
same,Herbicidal rating,Smartweed [6]; 11.2 kg/ha,0 (0-24)
same,Herbicidal rating,Velvetleaf [7]; 5.6 kg/ha,0 (0-24)
same,Herbicidal rating,Velvetleaf [7]; 11.2 kg/ha,0 (0-24)
same,Herbicidal rating,Yellow Nutsedge; 5.6 kg/ha,0 (0-24)
same,Herbicidal rating,Yellow Nutsedge; 11.2 kg/ha,0 (0-24)
same,Herbicidal rating,Barnyardgrass [8]; 0.28 kg/ha,0 (0-24)
same,Herbicidal rating,Barnyardgrass [8]; 1.12 kg/ha,3 (75-100)
same,Herbicidal rating,Barnyardgrass [8]; 5.6 kg/ha,3 (75-100)
same,Herbicidal rating,Cocklebur [9]; 1.12 kg/ha,0 (0-24)
same,Herbicidal rating,Cocklebur [9]; 5.6 kg/ha,3 (75-100)
same,Herbicidal rating,Crabgrass; 0.28 kg/ha,2 (50-74)
same,Herbicidal rating,Crabgrass; 1.12 kg/ha,3 (75-100)
same,Herbicidal rating,Crabgrass; 5.6 kg/ha,3 (75-100)
same,Herbicidal rating,Downy Brome [10]; 0.28 kg/ha,0 (0-24)
same,Herbicidal rating,Downy Brome [10]; 1.12 kg/ha,0 (0-24)
same,Herbicidal rating,Downy Brome [10]; 5.6 kg/ha,0 (0-24)
same,Herbicidal rating,Hemp Sesbania; 0.28 kg/ha,0 (0-24)
same,Herbicidal rating,Hemp Sesbania; 1.12 kg/ha,0 (0-24)
same,Herbicidal rating,Hemp Sesbania; 5.6 kg/ha,3 (75-100)
same,Herbicidal rating,Lambsquarters [11]; 0.28 kg/ha,0 (0-24)
same,Herbicidal rating,Lambsquarters [11]; 1.12 kg/ha,2 (50-74)
same,Herbicidal rating,Lambsquarters [11]; 5.6 kg/ha,3 (75-100)
same,Herbicidal rating,Morningglory [12]; 0.28 kg/ha,1 (25-49)
same,Herbicidal rating,Morningglory [12]; 1.12 kg/ha,0 (0-24)
same,Herbicidal rating,Morningglory [12]; 5.6 kg/ha,1 (25-49)
same,Herbicidal rating,Panicum; 0.28 kg/ha,0 (0-24)
same,Herbicidal rating,Panicum; 1.12 kg/ha,0 (0-24)
same,Herbicidal rating,Panicum; 5.6 kg/ha,2 (50-74)
same,Herbicidal rating,Rice; 0.28 kg/ha,0 (0-24)
same,Herbicidal rating,Rice; 1.12 kg/ha,0 (0-24)
same,Herbicidal rating,Rice; 5.6 kg/ha,1 (25-49)
same,Herbicidal rating,Smartweed [13]; 0.28 kg/ha,0 (0-24)
same,Herbicidal rating,Smartweed [13]; 1.12 kg/ha,3 (75-100)
same,Herbicidal rating,Smartweed [13]; 5.6 kg/ha,3 (75-100)
same,Herbicidal rating,Sorghum; 0.28 kg/ha,0 (0-24)
same,Herbicidal rating,Sorghum; 1.12 kg/ha,0 (0-24)
same,Herbicidal rating,Sorghum; 5.6 kg/ha,0 (0-24)
same,Herbicidal rating,Soybean; 0.28 kg/ha,0 (0-24)
same,Herbicidal rating,Soybean; 1.12 kg/ha,0 (0-24)
same,Herbicidal rating,Soybean; 5.6 kg/ha,0 (0-24)
same,Herbicidal rating,Sugarbeet; 0.28 kg/ha,1 (25-49)
same,Herbicidal rating,Sugarbeet; 1.12 kg/ha,0 (0-24)
same,Herbicidal rating,Sugarbeet; 5.6 kg/ha,1 (25-49)
same,Herbicidal rating,Velvetleaf [14]; 0.28 kg/ha,0 (0-24)
same,Herbicidal rating,Velvetleaf [14]; 1.12 kg/ha,0 (0-24)
same,Herbicidal rating,Velvetleaf [14]; 5.6 kg/ha,0 (0-24)
same,Herbicidal rating,Wheat; 0.28 kg/ha,0 (0-24)
same,Herbicidal rating,Wheat; 1.12 kg/ha,0 (0-24)
same,Herbicidal rating,Wheat; 5.6 kg/ha,0 (0-24)
same,Herbicidal rating,Wild Buckwheat; 0.28 kg/ha,0 (0-24)
same,Herbicidal rating,Wild Buckwheat; 1.12 kg/ha,0 (0-24)
same,Herbicidal rating,Wild Buckwheat; 5.6 kg/ha,0 (0-24)
